# In patent US5356921A, “Imidazolylphenol compounds, pharmaceutical compositions containing them, and processes for preparing such compounds and compositions” (Gruenenthal GmbH, priority 1992, dated 1994):
# Assays:
# guinea pigs = test: Allergen-induced bronchoconstriction in guinea pigs (Konzett-Roessler); assay type: in vivo, guinea pig; details: Cavia porcellus, po, 1 h, 60 minutes before ovalbumin, read-out: ED40-Value, inhibition of the bronchoconstriction elicited by ovalbumin
# Protocol: The antiasthmatic effect of compounds according to the invention was tested in anesthetized and ventilated guinea pigs. To induce an asthmatic reaction, the animals were passively sensitized by a single intraperitoneal injection of anti-ovalbumin serum. After 48 hours an asthmatic reaction was elicited by intravenous challenge with 0.2 mg/kg of ovalbumin. The immediately resulting bronchoconstriction was measured as an increase in intratracheal pressure. Effects caused by histamine, serotonin and sympathic counterreaction were eliminated by intravenous pretreatment with 2.15 mg/kg of mepyramine, 46.4 μg/kg of propranolol, 4.64 mg/kg of atropine, and 1 mg/kg of methysergide, all administered 5 minutes before challenge. Compounds according to the invention were orally administered 60 minutes before the administration of ovalbumin. The following ED40-values for the inhibition of the bronchoconstriction elicited by ovalbumin, i.e. the effective doses causing a 40% average inhibition of the bronchoconstriction, were determined: […]
# 5-lipoxygenase [1] = test: 5-lipoxygenase inhibition in rat blood after oral administration (ex vivo iLTB4-formation); details: male Wistar rats, 21.5 mg/kg oral, one hour after administration, A 23 187 15 μg/ml
# Protocol: The bioavailability of the compounds of formula I as 5-lipoxygenase inhibitors was characterized by means of an ex vivo biochemical assessment method described by Tateson et al. in Brit. J. Pharmacol. 94, 528 (1988). A compound of formula I was orally administered to male rats (Wistar strain) in a dose of 21.5 mg/kg. One hour after administration the rats after lethal CO2 -narcosis were bled by heart puncture with added heparin as an anticoagulant. Aliquots of the whole blood were incubated at 37° C. for 30 minutes in a water bath with calcium ionophore A 23 187 at an end concentration of 15 μg/ml. At the end of the incubation the samples were centrifuged, and the concentration of immunoreactive LTB4 (iLTB4) in aliquots of […] percent inhibition of ex vivo iLTB4 -formation in whole blood of rats treated with a compound according to the invention, rats orally treated with an appropriate vehicle solution were included in all experiments, and aliquots of their blood were run in parallel and were processed in the same way as described. The average iLTB4 -content of the plasma of the vehicle treated rats served as the 100% value. The activity in percent of the ex vivo iLTB4 -formation after oral administration of a compound according to the invention was calculated by dividing the average value of the iLTB4 -content in ng iLTB4 /ml of the group treated with a compound according to the invention by the average value of the iLTB4 -contents in ng iLTB4 /ml of the vehicle treated group and subsequent multiplication by the factor 100. The respective inhibition in percent was calculated by subtracting the activity in percent from 100.
# 5-lipoxygenase [2] = target: T1, 5-lipoxygenase (Rattus norvegicus, UniProt P12527); test: Inhibition of cell-free 5-lipoxygenase from RBL-1-cells; assay type: biochemical; details: 10,000×g supernatant of RBL cells; polarographic; arachidonic acid 75 μM
# T1 construct: endogenous in cells; host or cells: RBL-1 cells (rat basophilic leukemia), intact
# T1 sequence (P12527 1-673): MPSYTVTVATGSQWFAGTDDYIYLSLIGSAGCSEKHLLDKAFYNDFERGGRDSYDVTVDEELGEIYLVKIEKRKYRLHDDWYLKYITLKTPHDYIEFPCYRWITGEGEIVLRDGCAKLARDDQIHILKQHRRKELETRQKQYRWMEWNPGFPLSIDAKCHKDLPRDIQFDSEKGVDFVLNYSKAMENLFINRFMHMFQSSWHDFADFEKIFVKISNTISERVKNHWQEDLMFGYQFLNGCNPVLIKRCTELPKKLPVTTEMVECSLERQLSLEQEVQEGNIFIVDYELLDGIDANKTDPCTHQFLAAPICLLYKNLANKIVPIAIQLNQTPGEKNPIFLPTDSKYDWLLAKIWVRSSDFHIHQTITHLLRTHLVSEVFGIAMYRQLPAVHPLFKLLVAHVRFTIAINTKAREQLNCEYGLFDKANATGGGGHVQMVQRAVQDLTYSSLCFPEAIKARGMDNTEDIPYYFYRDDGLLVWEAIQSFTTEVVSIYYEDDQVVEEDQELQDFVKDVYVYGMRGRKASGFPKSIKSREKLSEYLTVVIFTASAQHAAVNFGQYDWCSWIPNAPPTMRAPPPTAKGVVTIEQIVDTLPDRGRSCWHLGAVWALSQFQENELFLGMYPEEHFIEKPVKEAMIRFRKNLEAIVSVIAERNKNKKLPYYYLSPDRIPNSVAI
# Protocol: Cell-free 5-lipoxygenase was polarographically measured from 10,000×gsupernatant of homogenized rat basophilic leucemia cells [M. Haurand and L. Flohe in Biol. Chem. Hoppe-Seyler 369, 133-142 (1988)]. After preincubation of the 10,000×g supernatant with arachidonic acid (75 μM), ATP (adenosine triphosphate; 4 μM), reduced glutathione (4 mM), and either a compound according to the invention (0.1 to 100 μM) or a solvent (ethanol and/or dimethyl sulfoxide) at 35° C. for 5 minutes, the lipoxygenase reaction was initiated by addition of calcium chloride (3 mM) and recorded simultaneously.
# The activity of 5-lipoxygenase was determined from the difference of the pO2 -decrease before and after addition of calcium chloride. The evaluation included the initial rate of the reaction after the lag-phase as well as the duration of the lag-phase. In a concentration range of from 5 to 10 μM the test substances induced lag-phases of 15 seconds.
# 5-lipoxygenase [3] = target: T1, 5-lipoxygenase; test: Inhibition of 5-lipoxygenase in RBL-1-cells; assay type: cell-based; details: 20 μM [14C]-arachidonic acid, 20 μM A 23 187
# Protocol: To determine the inhibition of 5-lipoxygenase rat basophilic leukemia cells (RBL-1-cells) were cultured in vitro, harvested by centrifugation, washed with 50 mM potassium phosphate buffer of pH 7.4, and then suspended in this buffer at 1×10^7 cells/mi. To 1 ml each of this suspension there was added indomethacin (10 μM) and calcium chloride (2 mM), and then the mixture was incubated in the absence or presence of a compound according to the invention in a concentration range of from 0.1 μM to 100 μM for 3 minutes and thereafter with 20 μM of [^14 C]-arachidonic acid and 20 μM of the calcium ionophore A 23 187 for 10 minutes. The reaction was stopped by adding 20 μl of glacial acetic acid, and then the mixture was extracted with ethyl acetate to isolate the metabolites of arachidonic acid formed by the enzymatic action of 5-lipoxygenase. These were separated by thin layer chromatography using a solvent mixture known to be suitable for lipoxygenase products [c.f. Jakschik et al., Biochem. Biophys. Res. Commun. 102, 624 (1981)].
# The distribution of the radioactivity among the various metabolites of arachidonic acid was measured using a TLC Linear Analyzer. By correlating the percentages of the amount of the products formed under the action of 5lipoxygenase (5-HETE, isomers of LTB4) in the absence as well as in the presence of different concentrations of compounds according to the invention, the IC50 -values, i.e. the concentrations which cause 50% inhibition of 5-lipoxygenase were determined graphically from semilogarithmic diagrams.
IC50 (5-lipoxygenase [2]) [µM],IC50 (5-lipoxygenase [3]) [µM],Compound,ED40 (guinea pigs) [mg/kg],Inhibition of ex vivo iLTB4-formation in whole blood (5-lipoxygenase [1]; 21.5 mg/kg) [%],Inhibition of ex vivo iLTB4-formation in whole blood (5-lipoxygenase [1]) [%]
7,2,"NC(=O)N(O)Cc1ccc(Oc2ccc(-n3ccnc3)cc2)cc1 [Example 1, N-hydroxy-N-[4-[4-(1H-imidazol-1-yl)phenoxy]phenylmethyl]urea]",9.3,89,–
3,5,"CC(=O)N(O)Cc1ccc(Oc2ccc(-n3ccnc3)cc2)cc1 [Example 3, N-hydroxy-N-[4-[4-(1H-imidazol-1-yl)phenoxy]phenylmethyl]acetamide]",15.5,–,91
